In brackets after ≈: the same amount, converted by molar mass. Read-outs that look alike come from different tables or passages of the source.
How the values were obtained:
Recombinant human Src = target: T1, Recombinant human Src (Homo sapiens, UniProt P12931); experiment: Enzymatic assay on isolated Src; type: biochemical; conditions: mean of at least two experiments; read-out: Enzymatic Data (Ki, μM) c-Src
T1 construct: purchased Upstate (Lake Placid, N.Y.)
Description: Recombinant human Src was purchased from Upstate (Lake Placid, N.Y.).

[1] = Microsomal stability assay; conditions: for Metabolic Stab.: percentage of unmodified parent drug, human liver microsomes 60 min
[2] = PAMPA, intestinal (GI) permeability; conditions: for Papp: Table 6
Protocol: Donor solution (0.5 mM) was prepared by diluting 1 mM dimethylsulfoxide (DMSO) compound stock solution using phosphate buffer (pH 7.4, 0.025 M). […] Donor solution (150 μL) was added to each well of the filter plate. To each well of the acceptor plate were added 300 μL of solution (50% DMSO in phosphate buffer). All compounds were tested in three different plates on different days. The sandwich was incubated for 5 h at room temperature under gentle shaking. After the incubation time, the plates were separated, and samples were taken from both receiver and donor sides and analyzed using LC with UV detection at 280 nm.
Permeability (Papp) for PAMPA was calculated according to the following equation, obtained from Wohnsland and Faller^27 and Sugano et al.^28 equation with some modification in order to obtain permeability values in cm s^−1,
Drug concentration is estimated by using the peak area integration. Membrane retentions (%) were calculated according to the following equation:
where r is the ratio between drug concentration in the acceptor and equilibrium concentration, D, A, and Eq represented drug concentration in the donor, acceptor and equilibrium solution, respectively.
Donor solution of tested compounds (0.5 mM) was prepared by diluting 1 mM dimethylsulfoxide (DMSO) compound stock solution using phosphate buffer (pH 7.4, 25 mM). […] Donor solution (150 μL) was added to each well of the filter plate. To each well of the acceptor plate were added 300 μL of solution (50% DMSO in phosphate buffer). Compounds was tested in three different plates on different days. The sandwich was incubated for 5 h at room temperature under gentle shaking.
Permeability (Papp) for PAMPA was calculated according to the following equation, obtained from Wohnsland and Faller and Sugano et al.^27, 28.
Drug concentration is estimated by using the peak area integration. Membrane retention (%) was calculated according to the following equation:

recombinant Fyn = recombinant Fyn (Homo sapiens, UniProt P06241); experiment: Enzymatic assay on isolated Fyn kinase
recombinant Fyn, sequence (P06241 whole entry, looked up): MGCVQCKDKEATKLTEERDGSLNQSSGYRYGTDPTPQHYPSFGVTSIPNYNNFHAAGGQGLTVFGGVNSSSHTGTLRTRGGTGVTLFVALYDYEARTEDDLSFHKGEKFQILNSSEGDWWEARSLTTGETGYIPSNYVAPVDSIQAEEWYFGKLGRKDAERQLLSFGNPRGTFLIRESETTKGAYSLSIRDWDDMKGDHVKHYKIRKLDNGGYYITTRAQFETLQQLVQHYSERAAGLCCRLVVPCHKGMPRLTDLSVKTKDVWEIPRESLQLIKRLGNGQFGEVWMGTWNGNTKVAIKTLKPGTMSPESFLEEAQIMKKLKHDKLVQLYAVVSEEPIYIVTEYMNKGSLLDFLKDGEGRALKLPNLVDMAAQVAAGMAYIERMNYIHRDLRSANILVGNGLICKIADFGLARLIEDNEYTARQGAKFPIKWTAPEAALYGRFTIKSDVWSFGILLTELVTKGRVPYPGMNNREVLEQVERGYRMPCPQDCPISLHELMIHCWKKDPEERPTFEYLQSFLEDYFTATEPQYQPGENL
Protocol: Kinase assays were performed in presence of 200 μM ATP and 100 μM peptide substrate. All inhibition assays were conducted with 0.01 μg active kinase, 0.33 μmol [^γ32P]ATP, 60 mM HEPES-NaOH pH 7.5, 3 μM Na-orthovanadate, 1.2 mM DTT, 50 μg/ml PEG20.0000, 10 mM magnesium acetate, 0.004% NP40 and 10% DMSO in a final volume of 10 μL. Fyn and inhibitors were preincubated in ice for 5 min; after addition of the substrates the reaction was conducted at 30° C. for 10 min. The reaction was stopped by adding 5 μL of 3% phosphoric acid. Aliquots (10 μL) were then transferred into a P30 Filtermat (PerkinElmer), washed five times with 75 mM phosphoric acid and once with acetone for 5 minute. The filter was dried and transferred to a sealable plastic bag, and scintillation cocktail (4 mL) was added. Spotted reactions were read in a MicroBeta Liquid (Perkinelmer) scintillation counter. The ID50 values were obtained according to the following equation:
Ki values toward recombinant Fyn were calculated using the equation:
according to a competitive mechanism of inhibition toward ATP substrate, where [SATP] is the concentration of ATP. Curve fitting was performed with the program GraphPad Prism version 5.00.

[3] = read-out: Enzymatic Data (Ki, μM) Fyn
[4] = water, 20 °C, thermodynamic from solid

T1 sequence (P12931 whole entry): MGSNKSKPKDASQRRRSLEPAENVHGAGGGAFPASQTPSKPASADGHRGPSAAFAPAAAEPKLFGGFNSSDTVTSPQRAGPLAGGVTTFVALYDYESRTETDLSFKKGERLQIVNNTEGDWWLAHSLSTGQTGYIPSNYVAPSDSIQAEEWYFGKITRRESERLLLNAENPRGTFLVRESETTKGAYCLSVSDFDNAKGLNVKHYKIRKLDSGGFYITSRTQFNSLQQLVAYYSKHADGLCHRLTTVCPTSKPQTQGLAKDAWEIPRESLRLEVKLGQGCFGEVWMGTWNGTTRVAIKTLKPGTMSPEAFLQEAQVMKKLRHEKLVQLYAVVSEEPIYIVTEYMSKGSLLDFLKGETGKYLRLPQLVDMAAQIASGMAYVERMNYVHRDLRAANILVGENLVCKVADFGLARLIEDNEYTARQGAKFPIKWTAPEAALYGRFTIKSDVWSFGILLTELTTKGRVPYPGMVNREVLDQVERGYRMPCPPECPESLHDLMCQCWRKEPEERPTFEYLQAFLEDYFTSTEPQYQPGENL

Compound: CCSc1nc(Nc2cccc(F)c2)c2cnn(CC(C)c3ccccc3)c2n1 (stereo not drawn)
- Ki (Recombinant human Src): 0.79 µM
- Metabolic Stab. [1]: 94%
- Papp ([2]; PAMPA): 1.72 10^−6 cm/sec

Compound: Fc1ccc(CNc2nc(SCCN3CCOCC3)nc3c2cnn3CC(Cl)c2ccccc2)cc1 (stereo not drawn) [Si180, 1-(2-chloro-2-phenylethyl)-N-(4-fluorobenzyl)-6-((2-morpholinoethyl)thio)-1H-pyrazolo[3,4-d]pyrimidin-4-amine]
- Ki (recombinant Fyn): 7.5 to 16 µM

Compound: CCSc1nc(Nc2cccc(O)c2)c2cnn(CC(C)c3ccccc3)c2n1 (stereo not drawn)
- Ki (Recombinant human Src): 0.11 µM
- Papp ([2]; PAMPA): 4.91 10^−6 cm/sec

Compound: Cl.Oc1cccc(Nc2nc(SCCN3CCOCC3)nc3c2cnn3CCc2ccccc2)c1 [Si332, 3-{[6-[(2-Morpholin-4-ylethyl)thio]-1-(2-phenylethyl)-1H-pyrazolo[3,4-d]pyrimidin-4-yl]amino}phenol hydrochloride]
- H2O Solubility (Water solubility assay; Table 6): 97 µg/mL
- solubility value (Water solubility assay; aqueous): 97 µg/mL
- Metabolic Stab. [1]: 97%
- Papp ([2]; PAMPA): 6.38 10^−6 cm/sec

Compound: CCC(C)Sc1nc(NCc2ccccc2)c2cnn(CC(Cl)c3ccccc3)c2n1 (stereo not drawn) [drawing 195]
- Ki (recombinant Fyn): > 100 µM

Compound: CC(Cn1nc(-c2ccc3[nH]ccc3c2)c2c(N)ncnc21)c1ccccc1 (stereo not drawn)
- Ki (recombinant Fyn; [3]): 1.62 µM

Compound: CCCCSc1nc(NCCc2ccccc2)c2cnn(CC(Cl)c3ccccc3)c2n1 (stereo not drawn)
- Ki (recombinant Fyn): > 100 µM

Compound: CNc1nc(SC)nc2c1c(-c1ccccc1)nn2CCc1ccccc1
- Ki (recombinant Fyn): > 10 µM

Compound: ClC(Cn1ncc2c(NCc3ccccc3)ncnc21)c1ccccc1 (stereo not drawn) [Si3]
- Ki (recombinant Fyn; read-out: Ki Fyn): 3.5 µM

Compound: CSc1nc(Nc2cccc(Cl)c2)c2cnn(CC(Cl)c3ccccc3)c2n1 (stereo not drawn) [Si83, 1-(2-chloro-2-phenylethyl)-N-(3-chlorophenyl)-6-(methylthio)-1H-pyrazolo[3,4-d]pyrimidin-4-amine]
- solubility at 24 h (Water solubility assay; [4]): 0.295 µM (≈ 0.127 µg/mL)
- solubility thermodynamic at 24 h (Water solubility assay; [4]): 0.13 µg/mL (≈ 0.302 µM)
- PAMPA BBB (MR %) (PAMPA, BBB permeability; Membrane Retention, BBB): (39.6) %
- Papp at 5 h, 0.5 mM (PAMPA, BBB permeability; PAMPA, pH 7.4): 3.14 ×10⁻⁶ cm/s
- Metabolic Stab. % ([1]; percentage of unmodified drug, Table 8): 91.1%
- PAMPA GI (MR %) ([2]; Membrane Retention, GI): (69.9) %
- Papp at 5 h, 0.5 mM ([2]; PAMPA, pH 7.4): 0.26 ×10⁻⁶ cm/s

Compound: CSc1nc(NCCc2cccc(Cl)c2)c2cnn(/C=C/c3ccccc3)c2n1 [drawing 198]
- Ki (recombinant Fyn; [3]): 16 µM

Compound: CCCNc1nc(SCCN2CCOCC2)nc2c1cnn2CC(Cl)c1ccccc1 (stereo not drawn) [Si109, 1-(2-chloro-2-phenylethyl)-6-((2-morpholinoethyl)thio)-N-propyl-1H-pyrazolo[3,4-d]pyrimidin-4-amine]
- Ki (recombinant Fyn): 7.5 to 16 µM

Compound: CCSc1nc(Nc2cccc(Cl)c2)c2cnn(CC(C)c3ccccc3)c2n1 (stereo not drawn)
- Ki (Recombinant human Src): 0.55 µM
- Papp ([2]; PAMPA): 3.81 10^−6 cm/sec

Compound: CSc1nc(Nc2ccccc2)c2cnn(CCc3ccccc3)c2n1
- Ki (Recombinant human Src): 1.46 µM
- Metabolic Stab. [1]: 90%
- Papp ([2]; PAMPA): 7.60 10^−6 cm/sec

Compound: ClC(Cn1ncc2c(Nc3ccccc3)nc(SC3CCCC3)nc21)c1ccccc1 (stereo not drawn)
- Ki (Recombinant human Src): 0.12 µM
- Metabolic Stab. [1]: 94%
- Papp ([2]; PAMPA): 13 10^−6 cm/sec

Compound: Fc1cccc(Nc2nc(SC3CCCC3)nc3c2cnn3CC(Cl)c2ccccc2)c1 (stereo not drawn) [drawing 191, reference compound]
- Ki (recombinant Fyn): > 100 µM

Compound: CC(Cn1ncc2c(Nc3ccccc3)nc(SCCN3CCOCC3)nc21)c1ccccc1 (stereo not drawn)
- Ki (Recombinant human Src): 1.44 µM
- Papp ([2]; PAMPA): 3.66 10^−6 cm/sec

Compound: Fc1ccc(CNc2nc(SCCN3CCOCC3)nc3c2cnn3CC(Cl)c2ccccc2)cc1 (stereo not drawn) [drawing 193]
- Ki (recombinant Fyn; [3]): 15.5 µM

Compound: CCC(C)Sc1nc(NCCc2ccccc2)c2cnn(CC(Cl)c3ccccc3)c2n1 (stereo not drawn) [drawing 196]
- Ki (recombinant Fyn): > 100 µM

Compound: COC(Cn1nc(-c2ccccc2)c2c(N)nc(SC)nc21)c1ccccc1 (stereo not drawn)
- Ki (recombinant Fyn): > 10 µM

Compound: CCCCSc1nc(Nc2cccc(O)c2)c2cnn(CC(Cl)c3ccccc3)c2n1 (stereo not drawn)
- Ki (Recombinant human Src): 0.13 µM
- Papp ([2]; PAMPA): 3.43 10^−6 cm/sec

Compound: ClC(Cn1ncc2c(NCc3ccccc3)nc(Cc3ccccc3)nc21)c1ccccc1 (stereo not drawn) [Si164, N,6-dibenzyl-1-(2-chloro-2-phenylethyl)-1H-pyrazolo[3,4-d]pyrimidin-4-amine]
- Ki (recombinant Fyn): 7.5 to 16 µM

Compound: CSc1nc(Nc2cccc(F)c2)c2cnn(CCc3ccccc3)c2n1
- Ki (Recombinant human Src): 1.06 µM
- Papp ([2]; PAMPA): 9.33 10^−6 cm/sec

Compound: CSc1nc(Nc2cccc(O)c2)c2cnn(CCc3ccccc3)c2n1
- Ki (Recombinant human Src): 0.62 µM
- Papp ([2]; PAMPA): 5.24 10^−6 cm/sec
